Results as given in publication PMC10489817, “2-Alkyl-Substituted-4-Amino-Thieno[2,3-d]Pyrimidines: Anti-Proliferative Properties to In Vitro Breast Cancer Models” (Molecules, 2023).
Where two headings read alike, the source gives them in different places.

How the values were obtained:
BALB 3T3 cells = test: in vitro 3T3 NRU test, phototoxicity; format: cell-based, mouse; details: for IC50: Mus musculus, light or radiation study; for PIF (photo-irritancy factor): PIF = CC50/PC50, <2 not phototoxic
Protocol: (§1) Compounds 2–5 were studied for cytotoxicity/phototoxicity by an in vitro 3T3 NRU-test. The cell line BALB 3T3, clone A31 (mouse embryo fibroblasts), was incubated with the test compounds at a concentration from 15 to 4000 µg/mL for 24 h at 37 °C, 5% CO2, and 95% humidity. The cytotoxicity and phototoxicity were expressed in percentages relative to the negative control determined. […] Based on the dose–response curves, the CC50/PC50 values (50% cytotoxic/phototoxic concentration) were calculated by nonlinear regression analysis (Table 1). The CC50 values can be used to calculate the PIF (photo-irritancy factor) for each test compound according to the following formula: PIF = CC50/PC50.
(§2) BALB/3T3 cells were cultured in 75 cm^2 tissue culture flasks in DMEM, 10% FBS, 2 mM glutamine, and antibiotics (penicillin 100 U/mL and streptomycin-100 µg/mL) at 37 °C, 5% CO2, and 90% relative humidity. Cytotoxicity/phototoxicity was assessed by a validated BALB/3T3 clone A31 neutral red uptake assay (3T3 NRU test). Briefly, cells were plated in a 96-well microtiter plate at a density of 1 × 10^4 cells/100 µL/well and incubated for 24 h. A wide concentration range was applied for the test compounds. For the phototoxicity tests, 96-well plates were irradiated with a dose of 2.4 J/cm^2, and the cells were incubated for an additional 24 h. After treatment with neutral red medium, washing, and treatment with the ethanol/acetic acid solution, the absorption was measured on a TECAN microplate reader (TECAN, Grödig, Austria) at a wavelength of 540 nm. The light source which we used was a light-emitting diode (LED) matrix—an artificial solar light simulator Helios-iO, model LE-9ND55-H—5500K (SERIC Ltd., Tokyo, Japan).
(§3) Cytotoxicity/phototoxicity were expressed as CC50/PC50 values (concentrations required for 50% cytotoxicity/phototoxicity), calculated using non-linear regression analysis (GraphPad Software GraphPad Prism 9.5.1, San Diego, CA, USA). The CC50 values were used to calculate the PIF (photo-irritancy factor) for each test substance, according to the following formula:
PIF = Cytotoxicity (CC50)/Phototoxicity (PC50)

MCF-10A = test: MTT anti-proliferative test, MCF-10A; format: cell-based; details: Homo sapiens
Description: (§4) The MCF-10A cell line (normal human mammary epithelial cells) served as a reference control.
(§5) All breast cell lines (MCF-10A, MCF-7, and MDA-MB-231) were purchased from the American Type Culture Collection—ATCC (Manassas, VA, USA). The MCF-7 and MDA-MB-231 were cultivated in Dulbecco’s modified Eagle’s medium (DMEM) and supplemented with 10% fetal bovine serum (FBS), 1% sodium pyruvate, and 1% MEM non-essential amino acids (NEAA) without antibiotics. The non-tumorigenic breast cell line (MCF-10A) was cultivated in DMEM medium (Sigma-Aldrich, St. Louis, MO, USA) and supplemented with 10% FBS, 1% sodium pyruvate, 1% non-essential amino acids (NEAA), 20 ng/mL human epithelia growth factor (hEGF), 10 μg/mL insulin, and 0.5 μg/mL hydrocortisone without antibiotics. All cell lines were maintained in a humidified atmosphere, with 5% CO2 at 37 °C.
(§6) Using the standard MTT-dye reduction assay described by Mosmann, the anti-proliferative activity was tested. The method is based on the metabolism of the tetrazolium salt MTT to insoluble formazan. The formazan absorption was registered using a microplate reader at λ = 540 nm. The measured absorption is an indicator of cell viability and metabolic activity. Anti-proliferative activities were expressed as IC50 values (concentrations required for 50% inhibition of cell growth), calculated using non-linear regression analysis (GraphPad Software, San Diego, CA, USA).

MDA-MB-231 = test: MTT anti-proliferative test, MDA-MB-231; format: cell-based, human; details: for SI (selective index) MDA-MB-231: IC50 MCF-10A/IC50 MDA-MB-231
Description: as §4, §5, §6

[1] = in vitro 3T3 NRU test, cytotoxicity; format: cell-based, mouse; details: mouse, BALB/3T3 clone A31 cells (mouse embryo fibroblasts)
Protocol: as §1, §2
as §3, with “formula: […]” for “formula:”

MCF-7 = test: Cell cycle analysis by propidium iodide staining, MCF-7; format: cell-based, human; details: for cell cycle arrest phase, MCF-7: ER positive cell line; for change of %G1 vs control, MCF-7 / change of %G2 vs control, MCF-7 / change of %S vs control, MCF-7: control = 100%, 24 h; for %G1, MCF-7 / %G2, MCF-7 / %S, MCF-7: treated at IC50, 24 h
Protocol: Our study continued with the examination of the effect of the newly synthesized compounds’ IC50 values on cell cycle progression. The cell aliquots were collected, and FACS analyses were used to detect the effects of cell treatments with the selected compounds (2, 4, and 5). A propidium iodide staining assay was performed.
The changes in the cell cycle distribution in % (G1, S, and G2 phases), based on the graphical figures A–C, were calculated and are given in Table 4.
The cells were trypsinized, suspended in medium + 10% FCS, and centrifuged (1000 rpm, 5 min); then, the pellet was suspended in PBS (1 mL) and fixed with EtOH. The cells were suspended in 2.5 mL pre-cold 70% EtOH and incubated on ice for 15 min. The staining procedure was as follows: the pellet was suspended in a 500 μL PI-solution in PBS and 0.1 mg/mL RNase A, and 0.05% Triton X-100 was added. After incubation for 10 min at 37 °C, the cells were transferred to the flow cytometer and cell fluorescence was measured. The samples were measured by flow cytometry (LSR II, BD Biosciences, Franklin Lakes, NJ, USA) and analyzed using BD FACS DIVA software v. 6.1.3 (BD Biosciences).

[2] = BALB 3T3, irradiated 2.4 J/cm^2 (PC50), read-out: IC50 of Mean ± SD, Phototoxicity
[3] = BALB 3T3, irradiated, value in brackets, read-out: IC50, Phototoxicity (converted)
[4] = read-out: IC50 MCF-10A (converted)
[5] = read-out: IC50 of Mean ± SD, Anti-Proliferative Activity MCF-10A
[6] = Homo sapiens, MDA-MB-231, MTT, read-out: IC50 MDA-MB-231 (converted)
[7] = Homo sapiens, MDA-MB-231, MTT, read-out: IC50 MDA-MB-231 (text)
[8] = Homo sapiens, MDA-MB-231, MTT, read-out: IC50 of Mean ± SD, Anti-Proliferative Activity MDA-MB-231
[9] = MTT, read-out: IC50 MDA-MB-231 (converted)
[10] = BALB 3T3, 24 h, NRU, no irradiation (CC50), read-out: IC50 of Mean ± SD, Cytotoxicity
[11] = BALB 3T3, value in brackets, read-out: IC50, Cytotoxicity (converted)

IC50 (MDA-MB-231; [6])	IC50 (MDA-MB-231; [7])	IC50 (MDA-MB-231; [8])	IC50 (MDA-MB-231; [9])	Compound	IC50 (BALB 3T3 cells; [2])	IC50 (BALB 3T3 cells; [3])	IC50 (MCF-10A; [4])	IC50 (MCF-10A; [5])	SI (selective index) MDA-MB-231 (MDA-MB-231)	IC50 at 24 h [1, 10]	IC50 at 24 h [1, 11]	cell cycle arrest phase, MCF-7 (MCF-7)	change of %G1 vs control, MCF-7 (MCF-7)	change of %G2 vs control, MCF-7 (MCF-7)	change of %S vs control, MCF-7 (MCF-7)	%G1, MCF-7 (MCF-7)	%G2, MCF-7 (MCF-7)	%S, MCF-7 (MCF-7)	PIF (photo-irritancy factor) (BALB 3T3 cells)
170 µM	52.6 µg/mL	52.6 ± 3.2 µg/mL	160 µM	CCOC(=O)Cc1nc(N)c2c(C)c(C(=O)OCC)sc2n1 [Compound 2, Ethyl 4-Amino-2-(2-Ethoxy-2-Oxoethyl)-5-Methylthieno[2,3-d]Pyrimidine-6-Carboxylate]	1080 ± 117 µg/mL	3300 µM	1700 µM	503 ± 16.7 µg/mL	9.6	1740 ± 75.5 µg/mL	5370 µM	arrest was detected in the G1 phase	+11.1%	+7.75%	−7.65%	44.9%	10.7%	39.8%	–
200 µM	62.9 µg/mL	62.9 ± 5.7 µg/mL	240 µM	CCOC(=O)c1sc2nc(CC)nc(N)c2c1C [Compound 4, Ethyl 4-Amino-2-Ethyl-5-Methylthieno[2,3-d]Pyrimidine-6-Carboxylate]	2110 ± 122 µg/mL	8000 µM	1400 µM	367 ± 17.8 µg/mL	5.8	2630 µg/mL	9370 µM	arrest was detected in the G1 phase	+20%	−22.55%	−8.35%	48.5%	7.769%	39.5%	1.2
1500 µM	–	365 ± 26.6 µg/mL	1450 µM	CCOC(=O)c1sc2nc(C)nc(N)c2c1C [Compound 5, Ethyl 4-Amino-2,5-Dimethyl-Thieno[2,3-d]Pyrimidine-6-Carboxylate]	2350 ± 114 µg/mL	9400 µM	2500 µM	618 ± 29.7 µg/mL	1.7	1540 ± 61.5 µg/mL	5400 µM	arrest was detected in the G1 phase	+20.54%	−15.7%	−10.2%	48.7%	8.40%	38.7%	1.2
